Measured values reported in US20240018146A1, “COMPOSITIONS AND METHODS OF USING THE SAME FOR TREATMENT OF NEURODEGENERATIVE AND MITOCHONDRIAL DISEASE” (MITOKININ, INC., priority 2020, published 2024).
Like-named read-outs stand apart in the source and are kept apart here.

Legend:
HeLa MKYP cells [1] = experiment: Cell death measured by DAPI staining, with 1 μM FCCP/oligomycin or no toxin (no FO); type: cell-based
Method: EP-0035985, EP-0037821, EP-0038098, and EP-0038099 in the presence of 1 μM FCCP/oligomycin or with no toxin (no FO) for 6 hrs. H2O2 treatment was performed as a control for cell death as measured by DAPI staining.
EP-0035985, EP-0038461, EP-0038463, and EP-0038503 in the presence of 1 μM FCCP/oligomycin or with no toxin (no FO) for 6.5 hrs. H2O2 treatment was performed as a control for cell death as measured by DAPI staining.
EP-0035985, EP-0038504, EP-0038508, and EP-0038521 in the presence of 1 μM FCCP/oligomycin or with no toxin (no FO) for 6.5 hrs. H2O2 treatment was performed as a control for cell death as measured by DAPI staining.
EP-0035985, EP-0038461, EP-0038463, EP-0038503, EP-0038504, EP-0038508, and EP-0038521 in the presence of 1 μM FCCP/oligomycin or with no toxin (no FO) for 6.5 hrs. H2O2 treatment was performed as a control for cell death as measured by DAPI staining.

HeLa MKYP cells [2] = experiment: Human mitophagy assay (HeLa mKeima assay, FACS); type: cell-based
Method: Briefly, HeLa MKYP cells were plated at 10,000 cells/well in 96 well plates along with compounds at various concentrations. Following 16 hrs of incubation, cells were treated with 1 uM FCCP/oligomycin for 6 hours, then analyzed via FACS for the presence of mitochondria in lysosomes (as determined by an emissions spectrum shift from the pH-sensitive mtKeima tag).
Briefly, HeLa cells expressing a mitophagy indicator (mtKeima) protein were treated with […] of FCCP and Oligomycin followed by the specified dose of compound, then analyzed by FACS to quantify the percentage of cells undergoing mitophagy.

[3] = Homo sapiens, HeLa, read-out: Mitophagy induction EC50
[4] = read-out: Mitophagy induction EC50

| SMILES | Highest safe dose (cytotoxicity; no FO; safe means DAPI+ <20%) (HeLa MKYP cells [1]; no FO) [µM] | Max % death with 1 μM FO (HeLa MKYP cells [1]) [%] | EC50 (HeLa MKYP cells [2]; [3]) [µM] | EC50 (HeLa MKYP cells [2]; [4]) [µM] | Max cell death at 25 μM compound, 1 uM FO (%) (HeLa MKYP cells [1]; 25 μM compound, 1 uM FO) | Cell death at 25 μM (no FO) (%) (HeLa MKYP cells [1]; 25 μM compound, no FO) | EC50 (HeLa MKYP cells [2]; Homo sapiens, HeLa, HeLa mKeima assay, read-out: Mitophagy EC50 (HeLa mKeima assay)) [µM] |
| --- | --- | --- | --- | --- | --- | --- | --- |
| COC[C@@H]1CCCN1[C@H]1COc2ccccc2[C@@H]1Nc1ncnc2[nH]c(C(F)(F)F)cc12 (single isomer, unassigned) [EP-0041491] | 25.0 | 3.7 | 10.2 | – | – | – | – |
| CS(=N)(=O)C1CN(C2COc3ccccc3C2Nc2ncnc3[nH]c(C(F)(F)F)cc23)C1 (stereo not drawn) [EP-0041496] | 25.0 | 3.4 | > 25 | – | – | – | – |
| Fc1ccc2c(c1)CC[C@@H](N1C[C@@H]3COC[C@H]3C1)[C@@H]2Nc1ncnc2[nH]c(C(F)(F)F)cc12 [EP-0040696] | 25.0 | 14.9 | 23.4 | – | – | – | – |
| c1ccc2c(c1)CC[C@H](N1C[C@H]3COC[C@H]3C1)[C@H]2Nc1ncnc2[nH]c(C3CC3)cc12 (single isomer, unassigned) [EP-0040248] | 25.0 | 3.7 | > 25 | – | – | – | – |
| Fc1ccc2c(c1)OC[C@H](N1C[C@H]3COC[C@@H]3C1)[C@H]2Nc1ncnc2[nH]c(C(F)(F)F)cc12 (single isomer, unassigned) [EP-0040747] | 25.0 | 5.8 | – | > 25 | – | – | – |
| FC1COCCC1[C@H]1COc2ccccc2[C@@H]1Nc1ncnc2[nH]c(C(F)(F)F)cc12 (single isomer, unassigned) [EP-0041324] | 25.0 | 10.4 | – | 12.3 | – | – | – |
| OC[C@H]1CN([C@H]2COc3ccccc3[C@@H]2Nc2ncnc3[nH]c(C(F)(F)F)cc23)CCO1 (single isomer, unassigned) [EP-0041559] | 25.0 | 3.7 | – | 10.3 | – | – | – |
| FC(F)(F)c1cc2c(N[C@H]3c4ccccc4C[C@@H]3N3C[C@H]4COC[C@H]4C3)ncnc2[nH]1 [EP-0039754] | 25.0 | 17.7 | > 25 | – | – | – | – |
| C[C@H]1CN([C@@H]2CCc3ccccc3[C@H]2Nc2ncnc3[nH]c(C(F)(F)F)cc23)CCO1 (single isomer, unassigned) [EP-0040504] | 25.0 | 2.0 | 9.33 | – | – | – | – |
| COCC1CC([C@H]2COc3ccccc3[C@@H]2Nc2ncnc3[nH]c(C(F)(F)F)cc23)C1 (stereo partly drawn) [EP-0041260] | 25.0 | 10.2 | 0.85 | – | – | – | – |
| C[C@H]1CN([C@H]2COc3ccccc3[C@@H]2Nc2ncnc3[nH]c(C(F)(F)F)cc23)CCO1 [EP-0040979] | 25.0 | 4.0 | > 25 | – | – | – | – |
| OC(C1CCOCC1)C1COc2ccccc2C1Nc1ncnc2[nH]c(C(F)(F)F)cc12 (single isomer, unassigned) [EP-0041269] | 25.0 | 2.9 | – | > 25 | – | – | – |
| C[C@@H]1CN([C@@H]2CCc3ccccc3[C@H]2Nc2ncnc3[nH]c(C4CC4)cc23)CCO1 (single isomer, unassigned) [EP-0040497] | 25.0 | 4.3 | 6.97 | – | – | – | – |
| FC1COCCC1[C@H]1COc2ccccc2[C@@H]1Nc1ncnc2[nH]c(C(F)(F)F)cc12 (single isomer, unassigned) [EP-0041322] | 25.0 | 11.0 | – | > 25 | – | – | – |
| CN1CCN(C2COc3ccccc3C2Nc2ncnc3[nH]c(C4CC4)cc23)CC1=O (racemic) [EP-0041600] | 25.0 | 4.9 | > 25 | – | – | – | – |
| C[C@@]12COC[C@]1(C)CN(C1CCc3ccccc3C1Nc1ncnc3[nH]c(C4CC4)cc13)C2 (stereo partly drawn) [EP-0040542] | 25.0 | 15.3 | 1.45 | – | – | – | – |
| C[C@@H]1COCCN1[C@H]1CCc2ccccc2[C@@H]1Nc1ncnc2[nH]c(C3CC3)cc12 (single isomer, unassigned) [EP-0040339] | 25.0 | 16.5 | > 25 | – | – | – | – |
| COC(C)(C)C1CN([C@H]2COc3ccccc3[C@@H]2Nc2ncnc3[nH]c(C(F)(F)F)cc23)C1 [EP-0041480] | 25.0 | 4.6 | 2.69 | – | – | – | – |
| Fc1ccc2c(c1)CC[C@@H](N1CCOCC1)[C@@H]2Nc1ncnc2[nH]c(C3CC3)cc12 [EP-0039747] | 25.0 | 24.4 | 9.31 | – | 24.4 | 12.9 | 9.31 |
| OC[C@@H]1CN([C@H]2COc3ccccc3[C@@H]2Nc2ncnc3[nH]c(C(F)(F)F)cc23)CCO1 (single isomer, unassigned) [EP-0041585] | 25.0 | 6.6 | 16.1 | – | – | – | – |
| Fc1ccc2c(c1)OC[C@H](N1C[C@H]3COC[C@H]3C1)[C@H]2Nc1ncnc2[nH]c(C(F)(F)F)cc12 (single isomer, unassigned) [EP-0040268] | 25.0 | 3.2 | > 25 | – | – | – | – |
| C[C@@H]1CN([C@H]2COc3ccccc3[C@@H]2Nc2ncnc3[nH]c(C(F)(F)F)cc23)CCO1 [EP-0040955] | 25.0 | 3.4 | > 25 | – | – | – | – |
| c1ccc2c(c1)OCC(N1CC3CCOC3C1)C2Nc1ncnc2[nH]c(C3CC3)cc12 (single isomer, unassigned) [EP-0041667] | 25.0 | 3.1 | – | > 25 | – | – | – |
| Fc1ccc2c(c1)OC[C@H](N1C[C@@H]3COC[C@H]3C1)[C@H]2Nc1ncnc2[nH]c(C(F)(F)F)cc12 (single isomer, unassigned) [EP-0040562] | 25.0 | 7.9 | 1.5 | – | – | – | – |
| c1ccc2c(c1)OC[C@H](C1CCOCC1)[C@H]2Nc1ncnc2[nH]c(C3CC3)cc12 [EP-0040728] | 25.0 | 3.7 | 9.4 | – | – | – | – |
| c1ccc2c(c1)OC[C@@H](C1CCOCC1)[C@H]2Nc1ncnc2[nH]c(C3CC3)cc12 [EP-0040730] | 25.0 | 8.3 | > 25 | – | – | – | – |
| OC[C@@H]1CN([C@H]2COc3ccccc3[C@@H]2Nc2ncnc3[nH]c(C(F)(F)F)cc23)CCO1 (single isomer, unassigned) [EP-0041586] | 25.0 | 10.7 | – | 9.59 | – | – | – |
| COC1CN([C@@H]2CCc3ccccc3[C@H]2Nc2ncnc3[nH]c(C(F)(F)F)cc23)C1 [EP-0040858] | 25.0 | 6.6 | ≥ 28.8 | – | – | – | – |
